# “And” between values parts separate entries of the source, which are not always exact repeats. Identical values can stand only once. Like-named read-outs stand apart in the source and are kept apart here.
# Tests used:
# EeAChE PAS = molecular target: T1, EeAChE PAS (Electrophorus electricus, UniProt O42275); format: binding; settings: compound 20 µM; EeAChE 7 µM; propidium iodide 8 µM
# T1 construct: The enzyme was electric eel AChE (EeAChE type VI-S, lyophilized powder, Sigma-Aldrich); purchased Sigma-Aldrich type VI-S; host or cells: electric eel (tissue-derived)
# From the text: This method is widely used as a screening approach to assess the potential ability of compounds to block AChE-induced β-amyloid aggregation. This is because when the compounds bind to the AChE PAS, they prevent the binding of β-amyloid, thereby inhibiting its aggregation.
# The enzyme was electric eel AChE (EeAChE type VI-S, lyophilized powder, Sigma-Aldrich). We selected this source of AChE for consistency with our other reports and because of the purity, specific activity, and lower cost compared to human AChE.
# Propidium iodide (final concentration 8 μM) was then added for a further 15 min incubation, and the fluorescence spectrum was taken (530 nm excitation and 600 nm emission) using a FLUOStar Optima microplate reader. The same concentration of propidium iodide in the Tris buffer was used as the blank. Triplicate determinations were recorded and the results were calculated via the following equation:% Displacement = 100 − (IFAChE+ Propidium + inhibitor/IFAChE + Propidium) × 100, where IFAChE + Propidium = fluorescence intensity of propidium iodide associated with AChE in the absence of the test compound (taken as 100%), and IFAChE + Propidium + inhibitor = fluorescence intensity of propidium iodide associated with AChE in the presence of the test compound.
# porcine liver CES = assay: In vitro CES inhibition (4-NPA substrate); format: biochemical; settings: compound 20 µM, n.a. = not active
# From the text: (§1) Assessment of the esterase profile of new potential anti-AD molecules enables the estimation of both the primary pharmacological effects of the tested compounds—their inhibition of AChE and BChE—and their possible unwanted side effect—inhibition of CES, which hydrolyzes numerous ester-containing drugs. For the esterase profile evaluation, human erythrocyte AChE, equine serum BChE, and porcine liver CES were used. These sources of BChE and CES were employed because of their relatively low cost, high sequence identity to human enzymes, and the exploratory character of this work.
# (§2) Chromophore absorbances were measured with a FLUOStar Optima microplate reader (BMG Labtech, Ortenberg, Germany). […] Initially, we used a single concentration of 20 µM for all compounds.
# eqBChE = molecular target: T2, eqBChE (Equus caballus, UniProt P81908); assay: Kinetic study of BChE inhibition (Lineweaver-Burk); format: biochemical; settings: mixed-type inhibition, mean ± SEM
# T2 construct: human erythrocyte AChE, equine serum BChE, and porcine liver CES were used; purchased Sigma-Aldrich; host or cells: equine serum (tissue-derived)
# Method: Similar results were obtained for other tested compounds (Figures S61 and S62). The obtained values of inhibition constants (Ki = competitive component and αKi = non-competitive component) are shown in Table 2.
# (§3) We assessed the mechanisms of AChE and BChE inhibition by performing a thorough analysis of enzyme kinetics. After a 5 min incubation at 25 °C (for temperature equilibration) with three increasing concentrations of inhibitor and six decreasing substrate concentrations, the residual enzyme activity was measured as described above for enzymatic assays.
# AChE = molecular target: T3, AChE (Homo sapiens, UniProt P22303); assay: Kinetic study of AChE inhibition (Lineweaver-Burk); format: biochemical; settings: mixed-type inhibition; mean ± SEM
# T3 construct: human erythrocyte AChE, equine serum BChE, and porcine liver CES were used; purchased Sigma-Aldrich; host or cells: human erythrocytes (tissue-derived)
# Method: as §3
# β-amyloid (1–42) (Aβ42) = β-amyloid (1–42) (Aβ42) (Homo sapiens, UniProt P05067); assay: Inhibition of Aβ42 self-aggregation (thioflavin T); format: biochemical; settings: for inhibition at 100 µM: read-out: Inhibition of Aβ42 Self-Aggregation
# Method: The inhibitory activity of tested hybrids against the self-aggregation of Aβ42 was determined in vitro using the thioflavin T (ThT) fluorimetric assay. According to [84], the ThT test is ideal for preliminary screening of inhibitors of Aβ42 self-aggregation, as it enables the quantitative testing of large numbers of compounds within a relatively short time.
# The influence of the inhibitory effect of the test compounds toward Aβ42 self-aggregation was determined using the thioflavin T (ThT) fluorescence method with minor modifications. This assay is based on a specific interaction between the fluorescent dye thioflavin T that binds to the β-sheets of assembled amyloid fibrils leading to a significant increase in fluorescence signal. Therefore, the decrease in ThT fluorescence correlates with the ability of the studied compounds to inhibit the formation of amyloid aggregates.
# One mg of lyophilized HFIP-pretreated Aβ42 from BACHEM (Bubendorf, Switzerland) was dissolved in DMSO to obtain a stable initial solution ([Aβ42] = 500 μM); then it was aliquoted and stored at −20 °C.
# For the measurement of Aβ42 self-aggregation and amyloid fibril inhibition studies by the tested compounds, aliquots of 500 μM Aβ42 stock solution were diluted in 215 mM Na-phosphate buffer pH = 8.0 to a final concentration of 50 μM Aβ42. Then the samples were incubated for 24 h at 37 °C without stirring in the absence (base level of Aβ42 self-aggregation, control) or presence of the test compounds. Myricetin and propidium iodide were used as reference compounds (positive controls). All compounds were used in a concentration of 100 µM. To quantify Aβ42 fibril formation, after incubation, 5 μM ThT in 50 mM glycine-NaOH buffer pH 8.5 was added to the solutions to a final concentration of 4 μM ThT and the fluorescence was measured at 440 nm (excitation) and 485 nm (emission). Analyses were performed with a FLUOStar Optima microplate reader (LabTech, Ortenberg, Germany). The blanks consisted of 215 mM Na-phosphate buffer, pH = 8.0, 20% (v/v) DMSO or test compounds, respectively. Each assay was run in triplicate.
# [1] = ABTS radical cation scavenging assay; set-up: key to ABTS^•+ Scavenging Activity, TEAC: TEAC: ratio of compound slope to Trolox slope (Trolox equivalents); settings: 1 h incubation; for IC50: 50% reduction of ABTS radical cation; for ABTS^•+ Scavenging Activity, TEAC: Trolox equivalent, n.a. = not active
# Method: In the ABTS assay, the dark-green ABTS cation-radical (ABTS^•+) is quenched by interaction with AOs. The consequent decrease in absorbance is followed spectrophotometrically per the previously described method.
# Radical scavenging activity of the compounds was assessed using the ABTS radical cation (ABTS^•+) decolorization assay with some modifications. ABTS (2,2′-azinobis-(3-ethylbenzothiazoline-6-sulfonic acid) was purchased from Tokyo Chemical Industry Co., Ltd. (Tokyo, Japan); potassium persulfate (dipotassium peroxodisulfate), Trolox (6-hydroxy-2,5,7,8-tetramethylchroman-2-carboxylic acid), and HPLC-grade ethanol and DMSO were obtained from Sigma-Aldrich (Saint Louis, MO, USA). Aqueous solutions were prepared using deionized water. All tested compounds were dissolved in DMSO.
# The solution of cation radical ABTS^•+ was produced by incubation of an aqueous solution of 7 mM ABTS and 2.45 mM potassium persulfate solution in equal quantities for 12–16 h at room temperature in the dark. Radical scavenging capacity of the compounds was analyzed by mixing 10 μL of compound with 240 μL of ABTS^•+ working solution in ethanol (100 μM final concentration). The reaction was monitored for an hour at 30 °C with an interval of 10 min. Data are given for 1 h of incubation of compounds with ABTS^•+. The reduction in absorbance was measured spectrophotometrically at 734 nm using an xMark microplate UV/VIS spectrophotometer (Bio-Rad, Hercules, CA, USA). Ethanol blanks were run in each assay. Values were obtained from five replicates of each sample and three independent experiments.
# The standard AO Trolox was used as a reference compound. AO capacity as Trolox equivalent (TEAC) values was determined as the ratio between the slopes obtained from the linear correlation of the ABTS radical absorbance with the concentrations of tested compounds and Trolox. Ascorbic acid was used as a positive control. […]. The compounds were tested in the concentration range of 0.5–100 µM.
# equine serum BChE = molecular target: T4, equine serum BChE (Equus caballus, UniProt P81908); assay: biochemical; settings: mean ± SEM, n = 3, read-out: Inhibitory activity against BChE, IC50
# T4 construct: human erythrocyte AChE, equine serum BChE, and porcine liver CES were used; purchased Sigma-Aldrich; host or cells: equine serum (tissue-derived)
# From the text: as §1, §2
# FRAP assay = settings: Trolox equivalents; 60 min, 37 °C; n.a. = not active
# Method: The Ferric Reducing Antioxidant Power (FRAP) test involves reduction of the ferric 2,4,6-tripyridyl-s-triazine complex [Fe(TPTZ)2]^3+ to an intense-blue ferrous complex [Fe(TPTZ)2]^2+ [92], as previously reported. Results are given as Trolox Equivalents (TE).
# The FRAP (ferric reducing antioxidant power) assay proposed by Benzie and Strain [92] was modified to be performed in 96-well microplates as described in detail in [53]. The FRAP reagent contained 2.5 mL of 10 mM TPTZ (2,4,6-tris(2-pyridyl)-s-triazine, Sigma-Aldrich) solution in 40 mM HCl, 2.5 mL of 20 mM FeCl3 (Sigma-Aldrich) in distilled water and 25 mL of 0.3 M acetate buffer (pH 3.6). Aliquots of 10 µL of the test compound dissolved in DMSO (0.5 mM) were placed in quadruplicate. Absorbance was measured at a wavelength of 593 nm after 60 min incubation at 37 °C. In each case, Trolox was used as a reference compound to obtain the standard curve. The AO activity was calculated with respect to the activity of Trolox and expressed as Trolox equivalents (TE)—the values calculated as the ratio of the concentrations of Trolox and the test compound resulting in the same effect on ferric reducing activity.
# human erythrocyte AChE = molecular target: T5, human erythrocyte AChE (Homo sapiens, UniProt P22303); assay: biochemical; settings: mean ± SEM, n = 3, read-out: Inhibitory activity against AChE, IC50
# T5 construct: human erythrocyte AChE, equine serum BChE, and porcine liver CES were used; purchased Sigma-Aldrich; host or cells: human erythrocytes (tissue-derived)
# From the text: as §1, §2
# [2] = Aβ42 50 µM, compound 100 µM, 24 h, 37 °C, thioflavin T
# T4 sequence (P81908 whole entry): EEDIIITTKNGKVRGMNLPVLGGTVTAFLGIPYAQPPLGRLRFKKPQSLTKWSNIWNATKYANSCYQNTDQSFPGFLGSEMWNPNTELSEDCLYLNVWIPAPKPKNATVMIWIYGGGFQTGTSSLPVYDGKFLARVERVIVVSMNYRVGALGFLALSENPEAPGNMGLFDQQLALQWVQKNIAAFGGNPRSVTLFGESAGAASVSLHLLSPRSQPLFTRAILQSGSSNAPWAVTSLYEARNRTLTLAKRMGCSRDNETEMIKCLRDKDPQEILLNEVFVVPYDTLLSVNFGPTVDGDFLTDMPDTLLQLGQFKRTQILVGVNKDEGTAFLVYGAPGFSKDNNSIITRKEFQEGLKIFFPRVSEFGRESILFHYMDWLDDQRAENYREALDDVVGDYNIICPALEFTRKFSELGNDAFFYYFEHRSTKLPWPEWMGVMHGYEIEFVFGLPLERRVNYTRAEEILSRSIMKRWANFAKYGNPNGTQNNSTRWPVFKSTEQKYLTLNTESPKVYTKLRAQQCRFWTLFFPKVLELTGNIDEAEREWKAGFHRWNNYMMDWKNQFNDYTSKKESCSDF
# T1 sequence (O42275 24-633): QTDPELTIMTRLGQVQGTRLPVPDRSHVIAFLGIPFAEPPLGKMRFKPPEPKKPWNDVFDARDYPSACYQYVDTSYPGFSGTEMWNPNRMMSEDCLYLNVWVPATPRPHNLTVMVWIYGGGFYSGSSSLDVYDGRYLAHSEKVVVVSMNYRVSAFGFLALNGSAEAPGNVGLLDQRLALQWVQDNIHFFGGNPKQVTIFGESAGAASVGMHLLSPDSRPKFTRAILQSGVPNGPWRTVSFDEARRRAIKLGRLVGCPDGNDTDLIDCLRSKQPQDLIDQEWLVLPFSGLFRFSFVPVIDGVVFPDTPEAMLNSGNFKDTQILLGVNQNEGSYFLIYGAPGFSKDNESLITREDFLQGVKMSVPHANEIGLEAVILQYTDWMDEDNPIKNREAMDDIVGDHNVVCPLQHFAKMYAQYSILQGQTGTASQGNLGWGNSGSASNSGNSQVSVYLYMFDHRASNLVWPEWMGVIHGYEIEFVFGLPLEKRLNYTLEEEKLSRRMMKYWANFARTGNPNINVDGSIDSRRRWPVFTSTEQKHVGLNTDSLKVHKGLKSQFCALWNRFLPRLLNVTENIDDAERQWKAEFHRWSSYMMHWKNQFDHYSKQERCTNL
# β-amyloid (1–42) (Aβ42), sequence (P05067 672-713 limits assumed): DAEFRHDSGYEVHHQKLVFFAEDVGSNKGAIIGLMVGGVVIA
# T5 sequence (P22303 32-617 isoform P22303-2 limits assumed): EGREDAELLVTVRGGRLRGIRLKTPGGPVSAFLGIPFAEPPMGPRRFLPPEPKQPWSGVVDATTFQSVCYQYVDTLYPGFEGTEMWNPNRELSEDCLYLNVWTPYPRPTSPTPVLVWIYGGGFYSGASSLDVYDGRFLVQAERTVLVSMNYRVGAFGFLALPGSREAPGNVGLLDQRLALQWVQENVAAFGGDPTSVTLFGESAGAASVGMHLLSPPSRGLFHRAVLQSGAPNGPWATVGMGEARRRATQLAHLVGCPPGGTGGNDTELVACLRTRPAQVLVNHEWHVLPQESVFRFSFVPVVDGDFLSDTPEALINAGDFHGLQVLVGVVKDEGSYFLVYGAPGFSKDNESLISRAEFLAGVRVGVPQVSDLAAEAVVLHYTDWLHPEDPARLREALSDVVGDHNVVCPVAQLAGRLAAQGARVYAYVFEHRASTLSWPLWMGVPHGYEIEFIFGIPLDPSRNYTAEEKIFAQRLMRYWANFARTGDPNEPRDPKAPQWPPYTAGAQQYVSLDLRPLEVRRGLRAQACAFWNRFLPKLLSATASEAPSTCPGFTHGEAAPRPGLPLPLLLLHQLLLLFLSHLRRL
# T2 sequence (P81908 whole entry): as the sequence (P81908 whole entry) above
# T3 sequence (P22303 32-617 isoform P22303-2 limits assumed): as the sequence (P22303 32-617 isoform P22303-2 limits assumed) above
Structure (SMILES),Propidium Displacement from EeAChE PAS (EeAChE PAS),"Inhibitory activity against CES, inhibition at 20 µM (porcine liver CES)","αKi (non-competitive inhibition constant), eqBChE (eqBChE)","Ki (eqBChE; read-out: Ki (competitive inhibition constant), eqBChE)","αKi (non-competitive inhibition constant), AChE (AChE)",inhibition at 100 µM (β-amyloid (1–42) (Aβ42); [2]),IC50 [1],"ABTS^•+ Scavenging Activity, TEAC [1]",IC50 (equine serum BChE),"FRAP, TE (FRAP assay)",IC50 (human erythrocyte AChE),Inhibition of Aβ42 Self-Aggregation (β-amyloid (1–42) (Aβ42); [2]),inhibition at 100 µM (β-amyloid (1–42) (Aβ42))
O=C(NCCCCCCCCNc1c2c(nc3ccccc13)CCCC2)c1ccccc1O [5c],14.2 ± 1.1%,29.5 ± 2.5%,0.0171 ± 0.0013 µM,0.0106 ± 0.0007 µM,0.263 ± 0.018 µM,71.9 ± 5.7%,25.5 ± 1.1 µM,0.75 ± 0.04,0.0104 ± 0.0013 µM,–,–,–,–
O=C(NCCCCNc1c2c(nc3ccccc13)CCCC2)c1ccccc1O [5a],11.8 ± 0.9%,1.6 ± 1.1%,–,–,–,20.7 ± 1.6%,25.3 ± 1.1 µM,0.73 ± 0.04,–,0.02,–,–,–
"Cc1c(C)c2c(c(C)c1O)CCC(C)(C(=O)O)O2 (stereo not shown) [Trolox, 6-hydroxy-2,5,7,8-tetramethylchroman-2-carboxylic acid, reference compound]",–,–,–,–,–,–,19.8 ± 0.8 µM,1.00,–,1.00,–,–,–
COc1ccccc1C(=O)NCCCCNc1c2c(nc3ccccc13)CCCC2 [6a],10.2 ± 0.9%,3.4 ± 0.7%,–,–,–,12.3 ± 0.9%,–,0.02 (n.a.),0.0105 ± 0.0007 µM,0.03,1.92 ± 0.13 µM,–,–
"Oc1ccccc1C=NCCCCNc1c2c(nc3ccccc13)CCCC2 [10a, 2-[4-(1,2,3,4-Tetrahydroacridin-9-ylamino)butyliminomethyl]phenol]",18.6 ± 1.6%,20.8 ± 0.4%,–,–,–,57.9 ± 4.6%,35.8 ± 1.9 µM,0.42 ± 0.03,0.127 ± 0.006 µM,0.02,0.743 ± 0.044 µM,–,–
"CC[N+](C)(CC)CCC[n+]1c(-c2ccccc2)c2cc(N)ccc2c2ccc(N)cc21.[I-].[I-] [Propidium iodide, reference compound]",–,–,–,–,–,–,–,–,–,–,–,90.7 ± 7.1%,–
"O=C1O[C@H]([C@@H](O)CO)C(O)=C1O [Ascorbic acid, reference compound]",–,–,–,–,–,–,22.6 ± 1.2 µM,0.96 ± 0.03,–,1.28 ± 0.11,–,–,–
"O=C(O)c1ccccc1O [Salicylic acid, reference compound]",–,8.9 ± 0.6%,–,–,–,–,–,no antiradical activity,47.6 ± 3.2 µM,0.02,–,–,6.5 ± 1.2%
"COc1cc(F)c(F)cc1C(=O)NCCCCNc1c2c(nc3ccccc13)CCCC2 [8a, 4,5-Difluoro-2-methoxy-N-[4-(1,2,3,4-tetrahydroacridin-9-ylamino)butyl]benzamide]",13.2 ± 1.0%,6.5 ± 1.1%,–,–,–,10.4 ± 0.9%,–,–,0.0547 ± 0.0034 µM,0.03,1.22 ± 0.07 µM,–,–
"O=C(NCCCCNc1c2c(nc3ccccc13)CCCC2)c1cc(F)c(F)cc1O [7a, 4,5-Difluoro-2-hydroxy-N-[4-(1,2,3,4-tetrahydroacridin-9-ylamino)butyl]benzamide]",10.4 ± 0.9%,4.3 ± 0.9%,–,–,–,17.4 ± 1.2%,> 200 µM,0.06 and 0.060 ± 0.002,0.0291 ± 0.0022 µM,–,0.5 ± 0.03 µM,–,–
